This note sets out measurements from patent publication US20190352297A1, “SELECTIVE AURORA A KINASE INHIBITORS” (UNIVERSITAT BERN, priority 2017, published 2019).

Entries after “also recorded” stand apart in the source; their conditions may differ.

The nature of data set [1]: In vitro reactivity towards glutathione (GSH). In kind it is physicochemical. Conditions: after 24 h with 5 mM GSH, pH 7.4, 37° C. The procedure: […] Reaction scheme and structures of modified analogs. b. LC chromatogram of the reaction mixture after t=0 h and t=14 h. […] 9-methylcarbazole (tret=2.44 min) was used as internal control. c. Concentration of compound 9 during the course of the reaction as determined by integration of the absorption peaks (at 310 nm) of compound 9 at tret=1.78 min. The average of two independent experiments is shown, SD is <5% for all data points. d. Aurora A inhibition in the HTRF biochemical assay. (d) Cellular pThr288 Aurora-A levels of cells incubated with 9 or rac-92 overnight at the indicated concentrations. The experiment was repeated twice and the error bars represent SD. […] Numbers represent average IC50±SD of two independent experiments.

The subject of a further data set is 456 kinases. The data set can be described thus: Kinome scan of 456 kinases (scanMAX). Conditions: screened at 1 μM. In kind it is binding. The procedure:
(§1) The kinome profiling of compound 9 was conducted by DiscoveRx. In total, 456 kinases were assayed (scanMAX). For most assays, kinase-tagged T7 phage strains were grown in parallel in 24-well blocks in an E. coli host derived from the BL21 strain. E. coli were grown to log-phase and infected with T7 phage from a frozen stock (multiplicity of infection=0.4) and incubated with shaking at 32° C. until lysis (90-150 minutes). The lysates were centrifuged (6000 g) and filtered (0.2 μm) to remove cell debris. The remaining kinases were produced in HEK-293 cells and subsequently tagged with DNA for qPCR detection. […] The liganded beads were blocked with excess biotin and washed with blocking buffer (SeaBlock (Pierce), 1% BSA, 0.05% Tween 20, 1 mM DTT) to remove unbound ligand and to reduce non-specific phage binding. […] Test compounds were prepared as 40× stocks in 100% DMSO and directly diluted into the assay. All reactions were performed in polypropylene 384-well plates in a final volume of 0.04 ml. […] The kinase concentration in the eluates was measured by qPCR. Compound 114 was screened at 1 μM, and results for primary screen binding interactions were reported as % of control (PoC). PoC=(test compound signal−positive control signal)/(DMSO signal−positive control signal). […] KD values were determined with a standard dose-response curve using the Hill equation.

Another data set relates to HeLa cells. The data set can be described thus: Mitotic index of HeLa cells. In kind it is cell-based, human. The procedure:
HeLa Kyoto cells were cultured in high-glucose DMEM with GlutaMAX (Life Technologies) media supplemented with 10% fetal calf serum (FCS) in a humidified 5% CO2 incubator at 37° C. For plasmid transfections, cells were seeded at 80-90% confluence. 4 μg of plasmid DNA in 100 μl OptiMEM and 4 μl of Lipofectamine 2000 (Life Technologies) in 100 μl OptiMEM were incubated in parallel for 5 minutes, mixed for 20 minutes and added to each well. All Aurora A clones were constructed using full-length Aurora A as a template with appropriate PCR primer pairs. […] For determining the mitotic index and the chromosome misalignment phenotype, cells were incubated with various concentrations of compounds for 20 h before analysis. […] For rescue experiments, HeLa Kyoto cells were first transfected with GFP-Aurora A, GFP-Aurora AR137A or GFP-Aurora AW277A for 20 h, followed by incubation with 9 for another 20 h before cells were fixed with cold methanol and stained.

For data set [2], the system named is Aurora A localization, HeLa Kyoto cells. Put plainly: Aurora A localization at the mitotic spindle (immunofluorescence). Particulars: overnight. In kind it is cell-based, human. The procedure: HeLa Kyoto cells were cultured in high-glucose DMEM with GlutaMAX (Life Technologies) media supplemented with 10% fetal calf serum (FCS) in a humidified 5% CO2 incubator at 37° C. For plasmid transfections, cells were seeded at 80-90% confluence. 4 μg of plasmid DNA in 100 μl OptiMEM and 4 μl of Lipofectamine 2000 (Life Technologies) in 100 μl OptiMEM were incubated in parallel for 5 minutes, mixed for 20 minutes and added to each well. All Aurora A clones were constructed using full-length Aurora A as a template with appropriate PCR primer pairs. […] GFP-Aurora AR137A and GFP-Aurora AW277A were engineered using a site directed mutagenesis kit (Agilent Technologies, no. 210515) with appropriate primers. For determining the mitotic index and the chromosome misalignment phenotype, cells were incubated with various concentrations of compounds for 20 h before analysis. Cells were likewise treated with 0.25 μM MLN8237 (Selleckchem, no. S1133) or 5 μM ZM447439 (Selleckchem, no. S1103). For flow cytometry analysis, 50 nM […] and 2.5 μM ZM447439 were used. For rescue experiments, HeLa Kyoto cells were first transfected with GFP-Aurora A, GFP-Aurora AR137A or GFP-Aurora AW277A for 20 h, followed by incubation with 9 for another 20 h before cells were fixed with cold methanol and stained. To assess the impact of compound 9 on cell cycle progression, DNA content was analyzed after propidium iodide staining using FACS (BD Accuri C6 flow cytometer).
Secondary antibodies were anti-mouse conjugated to Alexa488 or Alexa568, as well as anti-rabbit conjugated to Alexa488 or Alexa568, all used at 1:500 (Invitrogen). Confocal images were acquired on a Zeiss LSM 710 confocal microscope equipped with a Axiocam MRm (B/VVW) CCD camera using a 63×NA 1.0 oil objective and processed in ImageJ and Adobe Photoshop, maintaining relative image intensities within a series.

Data set [3] deals with T1, Aurora B (without INCENP) (Homo sapiens, UniProt Q96GD4).
T1 construct: purchased DiscoveRx scanMAX
T1 sequence (Q96GD4 whole entry): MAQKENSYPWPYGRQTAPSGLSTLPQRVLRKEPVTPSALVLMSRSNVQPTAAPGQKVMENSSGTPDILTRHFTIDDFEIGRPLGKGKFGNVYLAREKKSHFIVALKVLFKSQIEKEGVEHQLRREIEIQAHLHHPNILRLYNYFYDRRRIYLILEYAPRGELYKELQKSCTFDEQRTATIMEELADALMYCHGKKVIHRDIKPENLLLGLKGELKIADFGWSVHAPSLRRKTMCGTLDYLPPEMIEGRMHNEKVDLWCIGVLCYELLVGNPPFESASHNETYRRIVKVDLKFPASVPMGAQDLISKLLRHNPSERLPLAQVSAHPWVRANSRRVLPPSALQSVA
Put plainly: Active site directed binding competition assay, KD (DiscoveRx). The protocol:
as §1, with “signal). PoC values at 1 μM 9 for all kinases were visualized using TREEspot (DiscoveRx).” for “signal).”

The target in another data set is T2, Aurora C (Homo sapiens, UniProt Q9UQB9).
T2 construct: purchased DiscoveRx scanMAX
T2 sequence (Q9UQB9 1-309): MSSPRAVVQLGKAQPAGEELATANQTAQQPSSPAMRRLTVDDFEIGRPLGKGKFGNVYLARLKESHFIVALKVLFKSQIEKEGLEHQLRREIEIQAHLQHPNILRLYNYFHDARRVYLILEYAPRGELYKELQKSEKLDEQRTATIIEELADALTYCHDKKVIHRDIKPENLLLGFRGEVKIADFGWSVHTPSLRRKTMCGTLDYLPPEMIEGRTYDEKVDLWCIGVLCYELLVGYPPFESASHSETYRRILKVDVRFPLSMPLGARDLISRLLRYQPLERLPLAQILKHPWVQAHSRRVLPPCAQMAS
The description is as above. The protocol: as §1, with “signal). PoC values at 1 μM 9 for all kinases were visualized using TREEspot (DiscoveRx).” for “signal).”

Take `CCc1ccc(N=C2SC(=Cc3ccnc(Nc4ccc(C(=O)O)cn4)c3)C(=O)N2C)cc1` [Compound 9]: the “conversion to GSH adduct” value in data set [1] is listed as 50%. The kinome selectivity entry with 456 kinases is given as “remarkably selective”. Further, the mitotic index in the data set on HeLa cells (4 μM) is listed as ~15%; in the data set with HeLa cells (10 μM) it was ~25%; with HeLa cells (25 μM), ~40%. Besides, the “Aurora A localization at spindle microtubules and centrosomes” value in data set [2] is reported as “notably displaced from the spindle microtubules; also recorded: impairs Aurora A localization at the spindle microtubules”. The Kd (usually a measure of binding affinity in units of concentration) in data set [3] amounted to 10 nM; at Aurora C, 11 nM.
